Test results as given in paper PMC3598725, “Transporter engineering for improved tolerance against alkane biofuels in Saccharomyces cerevisiae” (Biotechnology for Biofuels, 2013).

Assays:
ABC2 = target: T1, ABC2 (Yarrowia lipolytica, UniProt Q6CBB8); assay: intracellular alkane level by GC, S. cerevisiae expressing transporter vs empty plasmid; format: cell-based; conditions: 48 h, whole-cell efflux, indirect
T1 construct: gene YALI0_C20265g; full-length, C-terminal 6xHis tag, pYES2 (GAL1) in S. cerevisiae BY4741; 165 kDa on western blot; plasma membrane
T1 sequence (Q6CBB8 1-1469): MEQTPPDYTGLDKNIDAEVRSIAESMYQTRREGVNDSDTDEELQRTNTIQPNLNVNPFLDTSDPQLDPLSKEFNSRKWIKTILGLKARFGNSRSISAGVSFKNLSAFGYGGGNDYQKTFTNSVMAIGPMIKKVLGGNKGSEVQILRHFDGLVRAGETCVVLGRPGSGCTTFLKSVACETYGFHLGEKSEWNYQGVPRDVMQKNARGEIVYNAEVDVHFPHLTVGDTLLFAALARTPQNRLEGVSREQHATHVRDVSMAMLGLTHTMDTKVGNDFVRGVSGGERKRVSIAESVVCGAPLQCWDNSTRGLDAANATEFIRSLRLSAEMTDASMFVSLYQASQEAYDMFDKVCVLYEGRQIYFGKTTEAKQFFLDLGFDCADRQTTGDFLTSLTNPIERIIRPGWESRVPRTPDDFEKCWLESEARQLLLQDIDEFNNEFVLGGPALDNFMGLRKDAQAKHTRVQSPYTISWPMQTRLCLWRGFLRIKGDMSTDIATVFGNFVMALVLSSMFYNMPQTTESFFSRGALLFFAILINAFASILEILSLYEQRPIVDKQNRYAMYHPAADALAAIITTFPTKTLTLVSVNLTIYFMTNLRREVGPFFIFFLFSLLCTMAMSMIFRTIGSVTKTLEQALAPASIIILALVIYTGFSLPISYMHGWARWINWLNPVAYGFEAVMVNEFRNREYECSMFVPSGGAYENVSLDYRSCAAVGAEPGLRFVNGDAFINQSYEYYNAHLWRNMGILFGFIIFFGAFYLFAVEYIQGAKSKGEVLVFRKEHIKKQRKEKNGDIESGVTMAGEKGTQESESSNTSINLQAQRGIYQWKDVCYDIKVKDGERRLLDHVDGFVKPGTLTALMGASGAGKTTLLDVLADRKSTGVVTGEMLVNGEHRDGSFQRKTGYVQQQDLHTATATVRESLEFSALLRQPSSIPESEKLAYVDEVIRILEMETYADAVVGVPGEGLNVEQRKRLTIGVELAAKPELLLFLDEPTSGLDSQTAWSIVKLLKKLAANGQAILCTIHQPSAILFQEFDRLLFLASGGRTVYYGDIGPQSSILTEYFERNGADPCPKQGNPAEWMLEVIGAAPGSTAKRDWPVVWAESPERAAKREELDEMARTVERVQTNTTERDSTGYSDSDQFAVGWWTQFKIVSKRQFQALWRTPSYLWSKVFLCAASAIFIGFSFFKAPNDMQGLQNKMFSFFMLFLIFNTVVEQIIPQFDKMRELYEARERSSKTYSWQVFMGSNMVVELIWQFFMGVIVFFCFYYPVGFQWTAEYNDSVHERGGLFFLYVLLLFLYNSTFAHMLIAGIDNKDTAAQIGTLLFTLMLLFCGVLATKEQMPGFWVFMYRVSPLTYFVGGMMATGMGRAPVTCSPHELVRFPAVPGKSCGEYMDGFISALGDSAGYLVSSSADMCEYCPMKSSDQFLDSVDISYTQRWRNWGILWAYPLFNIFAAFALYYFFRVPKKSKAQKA

ABC3 = target: T2, ABC3 (Yarrowia lipolytica, UniProt Q6CFY4); assay: as above; format: cell-based; conditions: 48 h, whole-cell efflux, indirect
T2 construct: gene YALI0_B02544g; full-length, C-terminal 6xHis tag, pYES2 (GAL1) in S. cerevisiae BY4741; 167 kDa on western blot; plasma membrane
T2 sequence (Q6CFY4 1-1485): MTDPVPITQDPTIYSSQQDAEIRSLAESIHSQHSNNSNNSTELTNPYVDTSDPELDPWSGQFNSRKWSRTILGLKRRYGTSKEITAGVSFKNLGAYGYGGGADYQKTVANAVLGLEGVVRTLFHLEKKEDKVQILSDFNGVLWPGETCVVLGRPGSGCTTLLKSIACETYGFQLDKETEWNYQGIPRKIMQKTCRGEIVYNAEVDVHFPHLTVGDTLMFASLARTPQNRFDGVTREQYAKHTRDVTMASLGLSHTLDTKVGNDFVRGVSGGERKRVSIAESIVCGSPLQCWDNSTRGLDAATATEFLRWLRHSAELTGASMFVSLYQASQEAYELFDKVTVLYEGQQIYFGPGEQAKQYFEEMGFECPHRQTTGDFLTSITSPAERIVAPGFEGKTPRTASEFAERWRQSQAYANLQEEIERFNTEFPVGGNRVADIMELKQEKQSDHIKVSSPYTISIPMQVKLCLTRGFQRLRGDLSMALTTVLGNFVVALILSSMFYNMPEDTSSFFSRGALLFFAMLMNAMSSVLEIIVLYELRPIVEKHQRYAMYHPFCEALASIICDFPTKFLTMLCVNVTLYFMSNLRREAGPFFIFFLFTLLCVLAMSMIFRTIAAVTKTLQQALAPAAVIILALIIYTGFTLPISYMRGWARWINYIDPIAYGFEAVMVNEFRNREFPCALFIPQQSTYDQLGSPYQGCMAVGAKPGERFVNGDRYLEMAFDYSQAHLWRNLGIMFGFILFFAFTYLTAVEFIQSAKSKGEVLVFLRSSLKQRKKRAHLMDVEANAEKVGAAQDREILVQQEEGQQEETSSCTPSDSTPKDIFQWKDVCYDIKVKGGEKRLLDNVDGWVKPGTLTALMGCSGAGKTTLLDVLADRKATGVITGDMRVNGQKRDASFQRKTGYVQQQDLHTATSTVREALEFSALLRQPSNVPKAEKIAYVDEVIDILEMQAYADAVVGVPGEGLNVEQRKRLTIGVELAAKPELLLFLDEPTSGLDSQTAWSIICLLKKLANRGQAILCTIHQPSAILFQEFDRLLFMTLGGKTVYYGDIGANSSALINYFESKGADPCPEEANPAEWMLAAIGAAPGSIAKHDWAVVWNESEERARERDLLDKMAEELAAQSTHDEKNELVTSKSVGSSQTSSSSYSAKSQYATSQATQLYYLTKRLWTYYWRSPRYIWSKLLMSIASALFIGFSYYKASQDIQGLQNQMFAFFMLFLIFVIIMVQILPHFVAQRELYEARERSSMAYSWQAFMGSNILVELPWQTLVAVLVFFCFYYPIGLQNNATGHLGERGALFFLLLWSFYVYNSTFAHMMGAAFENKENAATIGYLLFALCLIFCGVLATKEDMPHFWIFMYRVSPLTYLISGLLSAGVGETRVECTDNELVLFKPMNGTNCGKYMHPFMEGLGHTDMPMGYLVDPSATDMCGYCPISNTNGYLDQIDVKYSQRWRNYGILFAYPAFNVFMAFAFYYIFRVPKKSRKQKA

SMILES | fold lower intracellular level (ABC2; 0.5% (vol/vol) decane) | fold lower intracellular level (ABC3; 0.5% (vol/vol) decane) | fold lower intracellular level (ABC2; 20% (vol/vol) undecane) | fold lower intracellular level (ABC3; 20% (vol/vol) undecane)
CCCCCCCCCC [decane] | ~ 5 fold | ~ 5 fold | – | –
CCCCCCCCCCC [undecane] | – | – | ~ 30 fold | ~ 30 fold
